Experimental data published in patent US20260115250A1, “METHODS OF TREATING AGE-RELATED MACULAR DEGENERATION” (Character Biosciences, Inc., priority 2022, published 2026).
Ends that are not written are not given here. Peptide text beside a SMILES is read from it.

Tests used:
ARPE-19 cells = test: ARPE-19 cell lysis (Sytox Green); type: cell-based, human; conditions: 10 μM peptide, 2 h
Method: These figures illustrate ARPE-19 cell lysis. ARPE-19 cells were grown in 96-well plates to 75-85% confluence. Peptides at 10 mM were diluted in serum-free DMEM:F12 media into a 20 μM working solution (a 2× solution). Sytox Green was prepared in serum-free DMEM:F12 at a 1 μM working solution (a 2× solution). Equivalent volumes of the peptide and Sytox Green solutions were added to empty 96-well plates and mixed gently. Final peptide concentration was 10 μM. ARPE-19 cells (˜80% confluent in 96-well plates) were washed with DPBS and then incubated in 100 μL of peptide/Sytox Green mixture for 2 h at 37° C. Cells were fixed in 4% paraformaldehyde solution in DPBS and then incubated in 10 μM Hoechst solution for 10 min, washed, and imaged on a Yokogawa CQ1 high-content imager. CellPathfinder software was used to count live/dead cells in 4 fields of view at 20× magnification. Percent (%) lysis was calculated by dividing the number of Sytox Green+ nuclei by the total number of Hoechst+ nuclei.
ARPE-19 cells were grown in 96-well plates to 75-85% confluence. Peptides at 10 mM were diluted in serum-free DMEM: F12 media to solutions between […]. Sytox Green was prepared in serum-free DMEM: F12 media at a 1 μM working solution. Equivalent volumes of the peptide and Sytox Green solutions were added to empty 96-well plates and mixed gently. Final peptide concentration was 3.16-100 μM. ARPE-19 cells (˜80% confluent in 96-well plates) were washed with DPBS and then incubated in 100 μL of peptide/Sytox Green mixture for 2 h at 37° C. Cells were fixed in 4% paraformaldehyde solution in DPBS and then incubated in 10 μM Hoechst solution for 10 min, washed, and imaged on a Yokogawa CQ1 high-content imager. CellPathfinder software was used to count live/dead cells in 4 fields of view at 20× magnification. Percent (%) lysis was calculated by dividing the number of Sytox Green+ nuclei by the total number of Hoechst+ nuclei. Non-linear regression was used to calculate EC50 values.

[1] = peptide binding to non-oxidized and oxidized lipids (SPR); conditions: immobilized peptide; RU normalized to DMPC
Method: FIGS. 25A-25O show peptide binding activity to non-oxidized and oxidized lipids via SPR for indicated peptides. Peptides were reconstituted to 50 μg/mL in 10 mM acetate buffer, pH 4.5 and immobilized to ˜200 RU on a CM5 chip via amine coupling. Non-oxidized lipids (DMPC & POPC) and oxidized lipids (POVPC & KOdiA-PC) were diluted to 100 µM in HBS-EP running buffer and exposed to the chip for binding (n=3) at a flow rate of […] for 120 seconds. The surface was regenerated with 20% EtOH. T-001 served as a positive control and T-031 served as a negative control on each chip. For each peptide, the RU response for all lipids was normalized to the DMPC RU values.

[2] = DMPC solubility assay, 0.5 mM DMPC (turbidity reduction); type: biochemical; conditions: FIGS. 2A-2D and 3A-3C
Method: In this example, peptide stocks were diluted to 200 μM in H2O (a 2× solution) and 50 μL of peptide solution was transferred in triplicate into 96-well plates. A one mM solution of 1,2-dimyristoyl-sn-glycero-3-phosphocholine (DMPC) in H2O was prepared, and using a multichannel pipet, 50 μL DMPC solution was rapidly added to the plate. Peptide and lipid solutions were incubated at room temperature for 15 minutes with a final concentration of 100 μM peptides and 0.5 mM DMPC. After 15 minutes, absorbance was read on a plate reader at 405 nm. […] Data are presented as mean+SD over two runs.
In these experiments, DMPC solubility titration curves were generated. Peptide stocks were diluted to 200 μM in H2O (a 2× solution) and serially diluted in H2O over 4 concentrations, then 50 μL of peptide solutions were distributed in triplicate into 96-well plates. A 1 mM solution of 1,2-dimyristoyl-sn-glycero-3-phosphocholine (DMPC) in H2O was prepared, and using a multichannel pipet, 50 μL DMPC solution was rapidly added to the plate. Peptide and lipid solutions were incubated at room temperature for 15 minutes with final concentrations of 3.16-100 μM peptides and 0.5 mM DMPC. After 15 minutes, absorbance was read on a plate reader at 405 nm. […] Data are presented as mean+SD over two runs. Non-linear regression was used to calculate EC50 values.

LDLR [3] = target: T1, LDLR (Homo sapiens, UniProt P01130); test: lipid-dependent LDLR binding (SPR), single concentration; conditions: 1 μM peptide with or without 25 μM DMPC
T1 sequence (P01130 22-860): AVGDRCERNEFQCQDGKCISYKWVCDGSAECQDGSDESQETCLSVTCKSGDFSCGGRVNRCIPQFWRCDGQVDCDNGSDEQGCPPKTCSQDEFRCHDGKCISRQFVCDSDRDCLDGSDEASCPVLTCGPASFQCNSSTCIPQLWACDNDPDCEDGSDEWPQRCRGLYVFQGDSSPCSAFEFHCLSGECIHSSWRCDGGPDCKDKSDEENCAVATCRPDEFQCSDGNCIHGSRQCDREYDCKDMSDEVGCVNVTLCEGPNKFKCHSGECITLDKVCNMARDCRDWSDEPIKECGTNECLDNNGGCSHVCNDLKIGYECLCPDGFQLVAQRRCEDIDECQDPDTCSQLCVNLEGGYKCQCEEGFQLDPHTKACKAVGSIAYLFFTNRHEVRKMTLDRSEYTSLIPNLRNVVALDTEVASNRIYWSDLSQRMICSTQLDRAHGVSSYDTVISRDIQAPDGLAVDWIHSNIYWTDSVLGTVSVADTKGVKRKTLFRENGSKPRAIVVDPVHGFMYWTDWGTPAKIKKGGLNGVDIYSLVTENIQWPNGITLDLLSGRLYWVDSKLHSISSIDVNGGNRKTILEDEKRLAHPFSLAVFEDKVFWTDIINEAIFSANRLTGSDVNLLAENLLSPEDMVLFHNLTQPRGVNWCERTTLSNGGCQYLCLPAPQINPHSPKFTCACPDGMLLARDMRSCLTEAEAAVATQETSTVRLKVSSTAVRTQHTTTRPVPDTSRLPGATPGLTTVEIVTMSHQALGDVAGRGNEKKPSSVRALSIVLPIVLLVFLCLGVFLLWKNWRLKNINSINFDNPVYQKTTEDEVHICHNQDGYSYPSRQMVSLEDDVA
Method: Peptides were diluted in 1×HBS-N buffer with 1 mM CaCl2 to a final concentration of 1 μM and incubated with or without 25 μM DMPC for 1 hour at RT to form lipid complexes. Each peptide was tested in duplicate. LDLR was diluted to 10 μg/mL in 10 mM acetate buffer pH 4.5 and was immobilized (˜400RU) on a CM5 chip via amine coupling utilizing 1×HBS-P+ buffer with 1 mM CaCl2. Test peptides (with or without DMPC) were exposed to immobilized LDLR at a flow rate of […] for 120 seconds in HBS-N with 1 mM CaCl2. Between cycles the surface was regenerated with 3, 30 second injections of 10 mM NaOH and 100 mM EDTA. Data are plotted as max RU values, averaged from three separate runs.

C57BL/6J mice = test: tolerability testing in mice after intravitreal injection (H&E histopathology); type: in vivo, mouse; conditions: IVT, 520 μM, seven days
Description: Seven days following IVT injection, eyes were harvested and prepared for hematoxylin and eosin staining. A blinded veterinarian performed histopathological analysis of tissue slices to determine whether the peptides induced inflammation or retinal disruption.

LDLR [4] = target: T1, LDLR; test: LDLR binding (SPR), high surfactant preparation
Method in brief: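 Multi-cycle kinetics fitted 1:1: peptide flowed at 30 μL/sec for 120 seconds over immobilised LDLR (amine coupling, CM5, 1000 RU) in running buffer HBS-P+ plus 1 mM CaCl2. Five concentrations per peptide, 1:3 serial from 5 μM; surface regenerated between cycles with 50 mM NaOH/100 mM EDTA.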

CC(C)C[C@H](NC(=O)[C@H](CC(C)C)NC(=O)[C@H](CCCNC(=N)N)NC(=O)[C@H](CCCCN)NC(=O)[C@H](CCCNC(=N)N)NC(=O)[C@H](CC(C)C)NC(=O)[C@H](CCCCN)NC(=O)[C@H](CCCNC(=N)N)NC(=O)[C@H](CC(C)C)NC(=O)[C@@H](N)Cc1c[nH]cn1)C(=O)N[C@@H](CCCNC(=N)N)C(=O)N[C@@H](CC(=O)O)C(=O)N[C@@H](Cc1c[nH]c2ccccc12)C(=O)N[C@@H](Cc1ccccc1)C(=O)N[C@@H](CCCCN)C(=O)N[C@@H](C)C(=O)N[C@@H](Cc1ccccc1)C(=O)N[C@@H](Cc1ccc(O)cc1)C(=O)N[C@@H](CC(=O)O)C(=O)N[C@@H](CCCCN)C(=O)N[C@H](C(=O)N[C@@H](C)C(=O)N[C@@H](CCC(=O)O)C(=O)N[C@@H](CCCCN)C(=O)N[C@@H](Cc1ccccc1)C(=O)N[C@@H](CCCCN)C(=O)N[C@@H](CCC(=O)O)C(=O)N[C@@H](C)C(=O)N[C@@H](Cc1ccccc1)C(=O)O)C(C)C [T-021] (H-HLRKLRKRLLRDWFKAFYDKVAEKFKEAF-OH)
ARPE-19 cell lysis (ARPE-19 cells): induce cell lysis

T-009: therapeutic peptide (EELRVRLASHLRKLRKRLLRDADDLQKRLAVYQAGAREGAERGLSAIRER)
binding to oxidized lipids relative to DMPC [1]: binding to at least one oxidized lipid that was equivalent or improved to binding against DMPC | DMPC solubilizing activity [2]: significant activity | lipid-dependent LDLR binding (RU with lipid vs peptide alone) (LDLR [3]): lipid-dependent LDLR binding activity

CC[C@H](C)[C@H](NC(=O)CN)C(=O)N[C@@H](CCCCN)C(=O)N[C@@H](CCCCN)C(=O)N[C@@H](Cc1ccccc1)C(=O)N[C@@H](CC(C)C)C(=O)NCC(=O)N[C@@H](CO)C(=O)N[C@H](C(=O)N[C@@H](Cc1c[nH]c2ccccc12)C(=O)N[C@@H](CCCCN)C(=O)N[C@@H](Cc1ccccc1)C(=O)N[C@H](C(=O)N[C@@H](CCCCN)C(=O)N[C@@H](C)C(=O)N[C@@H](Cc1ccccc1)C(=O)N[C@H](C(=O)NCC(=O)O)C(C)C)[C@@H](C)CC)[C@@H](C)CC [T-034, reference compound] (H-GIKKFLGSIWKFIKAFVG-OH)
ARPE-19 cell lysis (ARPE-19 cells): induce cell lysis

T-007: therapeutic peptide (EELRVRLASHLRKLRKRLLRDADDLQKRLAVYQA)
DMPC solubilizing activity [2]: significant activity | lipid-dependent LDLR binding (RU with lipid vs peptide alone) (LDLR [3]): lipid-dependent LDLR binding activity

LKDFGERVARALREQFEDLGQSTEELRVRLASHLRKLRKRLLRDADDLQKRLAVYQA [T-114]
in vivo tolerability (inflammation or retinal disruption) (C57BL/6J mice): well tolerated | Kd (LDLR [4]): < 10 µM

CC[C@H](C)[C@H](NC(=O)[C@H](Cc1ccccc1)NC(=O)[C@H](CCCNC(=N)N)NC(=O)[C@H](CCCCN)NC(=O)[C@H](CC(C)C)NC(=O)[C@H](CCC(=O)O)NC(=O)[C@H](CCCCN)NC(=O)[C@H](CC(C)C)NC(=O)[C@H](C)NC(=O)[C@H](CO)NC(=O)[C@H](CCC(=O)O)NC(=O)[C@H](CC(C)C)NC(=O)[C@H](C)NC(=O)[C@H](CC(=O)O)NC(=O)[C@H](C)NC(=O)CNC(=O)[C@H](CO)NC(=O)[C@@H](N)CCCNC(=N)N)C(=O)N[C@@H](CCCNC(=N)N)C(=O)N[C@@H](CCC(=O)O)C(=O)N[C@@H](Cc1c[nH]c2ccccc12)C(=O)N[C@H](C(=O)O)[C@@H](C)O [T-101] (H-RSGADALESALKELKRFIREWT-OH; N-terminus and C-terminus assumed)
in vivo tolerability (inflammation or retinal disruption) (C57BL/6J mice): well tolerated

CC(C)C[C@H](NC(=O)[C@H](C)NC(=O)[C@H](CCCNC(=N)N)NC(=O)[C@H](Cc1ccccc1)NC(=O)[C@H](CCCNC(=N)N)NC(=O)[C@H](CCC(=O)O)NC(=O)[C@H](Cc1c[nH]c2ccccc12)NC(=O)[C@H](C)NC(=O)[C@@H](N)CC(=O)O)C(=O)N[C@@H](Cc1ccccc1)C(=O)N[C@@H](CCCCN)C(=O)N[C@@H](CCC(=O)O)C(=O)N[C@@H](CC(C)C)C(=O)N[C@@H](C)C(=O)N[C@@H](CC(=O)O)C(=O)N[C@@H](Cc1ccc(O)cc1)C(=O)N[C@@H](Cc1ccccc1)C(=O)N[C@@H](CCCNC(=N)N)C(=O)O [T-087] (H-DAWERFRALFKELADYFR-OH; N-terminus and C-terminus assumed)
in vivo tolerability (inflammation or retinal disruption) (C57BL/6J mice): well tolerated

T-030: therapeutic peptide (EHLCELIERACRKLVELQEKLSKWLIAELGEGWRQWLHSLKEFLS)
binding to oxidized lipids relative to DMPC [1]: binding to at least one oxidized lipid that was equivalent or improved to binding against DMPC | DMPC solubilizing activity [2]: significant activity

CC(C)C[C@H](NC(=O)[C@H](Cc1ccccc1)NC(=O)[C@H](CCC(=O)O)NC(=O)[C@H](CCC(=O)O)NC(=O)[C@H](CC(C)C)NC(=O)[C@H](CCC(N)=O)NC(=O)[C@H](CCCNC(=N)N)NC(=O)CNC(=O)[C@@H](NC(=O)[C@H](CC(C)C)NC(=O)[C@H](CCCNC(=N)N)NC(=O)[C@H](CC(C)C)NC(=O)[C@H](CC(C)C)NC(=O)[C@H](CCCNC(=N)N)NC(=O)[C@H](CCCCN)NC(=O)[C@H](CCCNC(=N)N)NC(=O)[C@H](CC(C)C)NC(=O)[C@H](CCCCN)NC(=O)[C@H](CCCNC(=N)N)NC(=O)[C@H](CC(C)C)NC(=O)[C@@H](N)Cc1c[nH]cn1)C(C)C)C(=O)O [T-028] (H-HLRKLRKRLLRLVGRQLEEFL-OH)
ARPE-19 cell lysis (ARPE-19 cells): induce cell lysis

YKDFGERVERALGRQLEMLGQSTEELRVRLASHLRKLRKRLLRDADDLQKRLAVYQA [T-112]
in vivo tolerability (inflammation or retinal disruption) (C57BL/6J mice): all peptides except T-112 were well tolerated | Kd (LDLR [4]): < 10 µM

T-018: therapeutic peptide (HLRKLRKRLLRPPEQAQQIRLQAEAFQARLKSWFE)
DMPC solubilizing activity [2]: significant activity | lipid-dependent LDLR binding (RU with lipid vs peptide alone) (LDLR [3]): lipid-dependent LDLR binding activity
